From publication PMC4356144, “The kinase LYK5 is a major chitin receptor in Arabidopsis and forms a chitin-induced complex with related kinase CERK1” (eLife, 2014)

What was measured:
[1] = biological target: T1, AtLYK5 (full-length, HA-tagged) (Arabidopsis thaliana, UniProt O22808); assay: competition of chitin magnetic bead pull-down, anti-HA immunoblot; type: biochemical; details: protoplasts treated with 10 µM oligomer for 15 min before harvest
T1 construct: gene LYK5; full-length cDNA, HA tag, 35S promoter, Arabidopsis Col-0 protoplasts
T1 sequence (O22808 27-664): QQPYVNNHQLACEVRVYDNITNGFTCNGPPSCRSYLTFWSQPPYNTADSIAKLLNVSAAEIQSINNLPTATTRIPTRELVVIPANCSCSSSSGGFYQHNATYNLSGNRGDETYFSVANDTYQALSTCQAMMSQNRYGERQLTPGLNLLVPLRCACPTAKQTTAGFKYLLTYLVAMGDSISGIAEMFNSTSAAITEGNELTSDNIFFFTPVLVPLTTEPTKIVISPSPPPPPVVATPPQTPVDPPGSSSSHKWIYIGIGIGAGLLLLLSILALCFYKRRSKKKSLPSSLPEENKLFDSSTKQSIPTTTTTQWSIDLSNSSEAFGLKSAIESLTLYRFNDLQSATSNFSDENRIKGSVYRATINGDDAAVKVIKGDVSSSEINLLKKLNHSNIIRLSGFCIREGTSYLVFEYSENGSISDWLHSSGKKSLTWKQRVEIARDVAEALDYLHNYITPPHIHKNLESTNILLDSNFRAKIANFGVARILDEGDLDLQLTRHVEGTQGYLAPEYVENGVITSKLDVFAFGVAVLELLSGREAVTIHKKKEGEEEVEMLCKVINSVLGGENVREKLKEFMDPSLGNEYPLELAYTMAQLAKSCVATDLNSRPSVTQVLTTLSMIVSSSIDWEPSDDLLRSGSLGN

AtLYK5 (ectodomain) = biological target: T2, AtLYK5 (ectodomain) (Arabidopsis thaliana, UniProt O22808); assay: isothermal titration calorimetry; type: binding; details: 10 mM HEPES pH 7.5, 100 mM NaCl, 25°C
T2 construct: gene LYK5; ectodomain 27-278 aa, E. coli BL21, pMCSG73; thrombin site before His tag, thrombin-cleaved, then Strep-Tactin purified
T2 sequence (O22808 27-278): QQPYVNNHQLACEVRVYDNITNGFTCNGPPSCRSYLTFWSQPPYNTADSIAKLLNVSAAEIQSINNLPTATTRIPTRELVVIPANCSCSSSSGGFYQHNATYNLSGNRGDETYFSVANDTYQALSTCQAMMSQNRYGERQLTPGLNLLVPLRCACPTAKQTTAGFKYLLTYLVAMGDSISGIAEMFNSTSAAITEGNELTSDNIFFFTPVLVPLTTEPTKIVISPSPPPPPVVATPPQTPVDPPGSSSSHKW

[2] = biological target: T3, wheat germ agglutinin (WGA); assay: isothermal titration calorimetry; type: binding; details: 10 mM HEPES pH 7.5, 100 mM NaCl, 25°C
T3 construct: gene WGA1

AtCERK1 (ectodomain) = biological target: T4, AtCERK1 (ectodomain) (Arabidopsis thaliana, UniProt A8R7E6); assay: isothermal titration calorimetry; type: binding; details: 10 mM HEPES pH 7.5, 100 mM NaCl, 25°C
T4 construct: gene CERK1; ectodomain 24-231 aa, pMAL-c2G (MBP fusion), amylose resin purified, E. coli
T4 sequence (A8R7E6 24-231): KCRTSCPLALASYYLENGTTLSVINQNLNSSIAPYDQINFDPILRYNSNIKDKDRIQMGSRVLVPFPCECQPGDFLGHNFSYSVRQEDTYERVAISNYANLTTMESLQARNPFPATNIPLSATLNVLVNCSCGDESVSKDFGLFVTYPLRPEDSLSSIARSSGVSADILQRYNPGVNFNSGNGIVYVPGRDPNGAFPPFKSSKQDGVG

[3] = biological target: T5, AtLYK4 (full-length, HA-tagged) (Arabidopsis thaliana, UniProt O64825); assay: competition of chitin magnetic bead pull-down, anti-HA immunoblot; type: biochemical; details: protoplasts treated with 10 µM oligomer for 15 min before harvest
T5 construct: gene LYK4; full-length cDNA, HA tag, 35S promoter, Arabidopsis Col-0 protoplasts
T5 sequence (O64825 23-612): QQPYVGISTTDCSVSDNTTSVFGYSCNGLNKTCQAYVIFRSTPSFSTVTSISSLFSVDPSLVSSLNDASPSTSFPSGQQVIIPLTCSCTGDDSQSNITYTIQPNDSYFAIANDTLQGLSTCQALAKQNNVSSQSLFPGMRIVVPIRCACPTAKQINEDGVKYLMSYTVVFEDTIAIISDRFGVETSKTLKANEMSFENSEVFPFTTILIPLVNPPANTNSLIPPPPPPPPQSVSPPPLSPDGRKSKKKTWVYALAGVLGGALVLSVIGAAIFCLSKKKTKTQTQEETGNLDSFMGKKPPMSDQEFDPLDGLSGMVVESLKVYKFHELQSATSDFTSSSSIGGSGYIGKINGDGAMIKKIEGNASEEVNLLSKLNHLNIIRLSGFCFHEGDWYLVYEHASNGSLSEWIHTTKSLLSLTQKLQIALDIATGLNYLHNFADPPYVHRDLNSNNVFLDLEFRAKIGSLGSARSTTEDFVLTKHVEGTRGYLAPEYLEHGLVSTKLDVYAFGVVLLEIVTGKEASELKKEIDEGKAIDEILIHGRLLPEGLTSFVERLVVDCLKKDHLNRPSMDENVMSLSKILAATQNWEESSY

AtCERK1 kinase domain = biological target: T6, AtCERK1 kinase domain (Arabidopsis thaliana, UniProt A8R7E6); assay: in vitro autophosphorylation, […] autoradiography; type: biochemical; details: 50 mM Tris pH 7.6, 50 mM KCl, 10 mM MnCl2, 10 mM MgCl2, room temperature; labelled compound
T6 construct: gene CERK1; intracellular kinase domain 255-617 aa, N-terminal GST, pGEX 5X-1, E. coli BL21 (DE3)
T6 sequence (A8R7E6 255-617): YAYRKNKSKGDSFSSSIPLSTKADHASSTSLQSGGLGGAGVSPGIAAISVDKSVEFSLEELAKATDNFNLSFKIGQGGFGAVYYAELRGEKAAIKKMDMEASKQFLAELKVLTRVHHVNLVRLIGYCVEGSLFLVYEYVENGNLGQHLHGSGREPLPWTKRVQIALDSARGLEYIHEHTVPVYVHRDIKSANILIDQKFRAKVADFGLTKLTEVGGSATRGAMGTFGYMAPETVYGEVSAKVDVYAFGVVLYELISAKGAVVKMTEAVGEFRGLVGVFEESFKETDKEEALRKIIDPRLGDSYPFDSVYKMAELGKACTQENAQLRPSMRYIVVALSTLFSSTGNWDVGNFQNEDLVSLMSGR

[4] = biological target: the molecule itself; assay: SDS-PAGE without reducing agent and immunoblot; crude protein of transgenic Arabidopsis expressing AtLYK5-HA in Atlyk5-2, before or 15 min after 1 µM chitooctaose, boiled 5 min without DTT; anti-HA blot

Molecule: CC(=O)N[C@H]1[C@H](O[C@H]2[C@H](O)[C@@H](NC(C)=O)[C@H](O[C@H]3[C@H](O)[C@@H](NC(C)=O)[C@H](O[C@H]4[C@H](O)[C@@H](NC(C)=O)C(O)O[C@@H]4CO)O[C@@H]3CO)O[C@@H]2CO)O[C@H](CO)[C@@H](O[C@@H]2O[C@H](CO)[C@@H](O[C@@H]3O[C@H](CO)[C@@H](O[C@@H]4O[C@H](CO)[C@@H](O)[C@H](O)[C@H]4NC(C)=O)[C@H](O)[C@H]3NC(C)=O)[C@H](O)[C@H]2NC(C)=O)[C@@H]1O (some centres unmarked) [7mer, chitoheptaose]
- competition of chitin magnetic bead pull-down, anti-HA immunoblot [1]: The binding with AtLYK5 was strongly inhibited by chitoheptaose and chitooctaose

Molecule: CC(=O)N[C@H]1[C@H](O[C@H]2[C@H](O)[C@@H](NC(C)=O)[C@H](O[C@H]3[C@H](O)[C@@H](NC(C)=O)[C@H](O[C@H]4[C@H](O)[C@@H](NC(C)=O)C(O)O[C@@H]4CO)O[C@@H]3CO)O[C@@H]2CO)O[C@H](CO)[C@@H](O[C@@H]2O[C@H](CO)[C@@H](O[C@@H]3O[C@H](CO)[C@@H](O[C@@H]4O[C@H](CO)[C@@H](O[C@@H]5O[C@H](CO)[C@@H](O)[C@H](O)[C@H]5NC(C)=O)[C@H](O)[C@H]4NC(C)=O)[C@H](O)[C@H]3NC(C)=O)[C@H](O)[C@H]2NC(C)=O)[C@@H]1O (some centres unmarked) [8mer, chitooctaose]
- Kd (AtLYK5 (ectodomain)): 1720 nM
- Kd [2]: 1600 nM
- Kd (AtCERK1 (ectodomain)): 455000 nM
- competition of chitin magnetic bead pull-down, anti-HA immunoblot [3]: the binding with AtCERK1 or AtLYK4 was only slightly reduced by the same competitors
- competition of chitin magnetic bead pull-down, anti-HA immunoblot [1]: The binding with AtLYK5 was strongly inhibited by chitoheptaose and chitooctaose

Molecule: Nc1ncnc2c1ncn2[C@@H]1O[C@H](COP(=O)(O)OP(=O)(O)OP(=O)(O)O)[C@@H](O)[C@H]1O [ATP]
- in vitro autophosphorylation, 32P autoradiography (AtCERK1 kinase domain): the AtCERK1 kinase domain showed strong kinase activity as previously reported

B1: AtLYK5-HA (full length AtLYK5 under its native promoter in Atlyk5-2 mutant plants) (receptor, Arabidopsis thaliana, UniProt O22808 27-664, looked up)
chain: QQPYVNNHQLACEVRVYDNITNGFTCNGPPSCRSYLTFWSQPPYNTADSIAKLLNVSAAEIQSINNLPTATTRIPTRELVVIPANCSCSSSSGGFYQHNATYNLSGNRGDETYFSVANDTYQALSTCQAMMSQNRYGERQLTPGLNLLVPLRCACPTAKQTTAGFKYLLTYLVAMGDSISGIAEMFNSTSAAITEGNELTSDNIFFFTPVLVPLTTEPTKIVISPSPPPPPVVATPPQTPVDPPGSSSSHKWIYIGIGIGAGLLLLLSILALCFYKRRSKKKSLPSSLPEENKLFDSSTKQSIPTTTTTQWSIDLSNSSEAFGLKSAIESLTLYRFNDLQSATSNFSDENRIKGSVYRATINGDDAAVKVIKGDVSSSEINLLKKLNHSNIIRLSGFCIREGTSYLVFEYSENGSISDWLHSSGKKSLTWKQRVEIARDVAEALDYLHNYITPPHIHKNLESTNILLDSNFRAKIANFGVARILDEGDLDLQLTRHVEGTQGYLAPEYVENGVITSKLDVFAFGVAVLELLSGREAVTIHKKKEGEEEVEMLCKVINSVLGGENVREKLKEFMDPSLGNEYPLELAYTMAQLAKSCVATDLNSRPSVTQVLTTLSMIVSSSIDWEPSDDLLRSGSLGN
notes: AtLYK5 (At2g33580), Arabidopsis thaliana; genomic fragment with the 1.8 kb promoter and the coding region up to the stop codon, in pGWB13; also called wild-type AtLYK5; source: transgenic Arabidopsis (Atlyk5-2 background, native promoter), in crude extract or lysate
- stoichiometry N [4]: 2
